Laboratory results from publication PMC9217908, “Screening of commonly prescribed drugs for effects on the CAT1-mediated transport of L-arginine and arginine derivatives” (Amino Acids, 2022).
Read-outs that look alike come from different tables or passages of the source.

How the values were obtained:
[1] = target: T1, CAT1 (cationic amino acid transporter 1, CAT1/SLC7A1) (Homo sapiens, UniProt P30825); test: inhibition of [3H]-L-arginine uptake in HEK-CAT1 cells, Lineweaver-Burk; format: cell-based; conditions: substrate L-arginine; competitive
T1 construct: full-length human transporter stably transfected in HEK cells (HEK-CAT1); net uptake against HEK-VC vector control cells
T1 sequence (P30825 whole entry): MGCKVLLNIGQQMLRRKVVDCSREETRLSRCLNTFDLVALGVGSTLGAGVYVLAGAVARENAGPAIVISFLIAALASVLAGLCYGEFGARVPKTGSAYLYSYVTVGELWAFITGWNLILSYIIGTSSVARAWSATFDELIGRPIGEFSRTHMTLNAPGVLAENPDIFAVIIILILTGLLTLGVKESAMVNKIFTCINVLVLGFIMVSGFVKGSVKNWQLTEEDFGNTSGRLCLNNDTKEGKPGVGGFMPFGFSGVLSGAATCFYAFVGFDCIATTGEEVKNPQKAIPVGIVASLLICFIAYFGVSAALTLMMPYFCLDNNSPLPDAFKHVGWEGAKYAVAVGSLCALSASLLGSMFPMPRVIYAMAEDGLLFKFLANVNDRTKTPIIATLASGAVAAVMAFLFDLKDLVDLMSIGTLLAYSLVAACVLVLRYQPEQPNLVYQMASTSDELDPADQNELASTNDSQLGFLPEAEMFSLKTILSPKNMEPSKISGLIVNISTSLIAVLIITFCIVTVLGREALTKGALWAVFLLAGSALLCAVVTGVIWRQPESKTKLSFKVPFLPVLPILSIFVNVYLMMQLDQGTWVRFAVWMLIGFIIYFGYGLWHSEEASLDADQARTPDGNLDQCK

[2] = target: T1, CAT1 (cationic amino acid transporter 1, CAT1/SLC7A1); test: cell-based; design: species or system HEK-CAT1 (HEK293 stably transfected); Inhibition of net CAT1-mediated [3H]-ADMA (1 uM) uptake, 2.5 min, scintillation counting, vector control subtracted; conditions: HEK293, ADMA 1 uM as substrate; for inhibition at 20 µM: read-out: % Inhibition of ADMA uptake at 20 µM; for inhibition at 200 µM: read-out: % Inhibition of ADMA uptake at 200 µM
Procedure, shortened: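 HEK cells expressing CAT1 and vector-control cells took up [^3H]-L-arginine for 5 min, or [^3H]-L-homoarginine or [^3H]-ADMA (1 μM) for 2.5 min, with or without drug at 20 or 200 µM. Net CAT1 uptake was CAT1 cells minus control cells, and inhibition (%) = 100 − V/V0×100. Negative values mean stimulation; n = 6–9.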

[3] = target: T1, CAT1 (cationic amino acid transporter 1, CAT1/SLC7A1); test: cell-based; design: species or system HEK-CAT1 (HEK293 stably transfected); Inhibition of net CAT1-mediated [3H]-L-homoarginine (1 uM) uptake, 2.5 min, scintillation counting, vector control subtracted; conditions: HEK293, L-homoarginine 1 uM as substrate; for inhibition at 20 µM: read-out: % Inhibition of L-homoarginine uptake at 20 µM; for inhibition at 200 µM: read-out: % Inhibition of L-homoarginine uptake at 200 µM
Procedure, shortened: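 HEK-CAT1 cells with HEK-VC vector controls; [3H]-L-homoarginine (1 μM) uptake over 2.5 min with or without test compound at 20 µM or 200 µM. Net CAT1 uptake (CAT1 minus VC) gives inhibition (%) = 100 – (V/V0 × 100). Negative values mean stimulated uptake; n = 6–9 from at least two independent experiments.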

[4] = target: T1, CAT1 (cationic amino acid transporter 1, CAT1/SLC7A1); test: cell-based; design: species or system HEK-CAT1 (HEK293 stably transfected); Inhibition of net CAT1-mediated [3H]-L-arginine (100 uM) uptake, 5 min, scintillation counting, vector control subtracted; conditions: HEK293, L-arginine 100 uM as substrate; for inhibition at 20 µM: read-out: % Inhibition of L-arginine uptake at 20 µM; for inhibition at 200 µM: read-out: % Inhibition of L-arginine uptake at 200 µM
Procedure, shortened: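 HEK-CAT1 and vector-control HEK-VC cells took up [3H]-L-arginine (100 μM) for 5 min, with or without drug at 20 or 200 µM; [3H]-L-homoarginine or [3H]-ADMA uptake ran 2.5 min. Net uptake is CAT1 minus VC cells, and inhibition (%) = 100 − (V/V0 × 100). Negative values mean stimulated uptake.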

[5] = target: T1, CAT1 (cationic amino acid transporter 1, CAT1/SLC7A1); test: inhibition of [3H]-L-homoarginine uptake in HEK-CAT1 cells; format: cell-based; conditions: read-out: % inhibition at 20 μM
[6] = target: T1, CAT1 (cationic amino acid transporter 1, CAT1/SLC7A1); test: inhibition of [3H]-L-arginine uptake in HEK-CAT1 cells; format: cell-based
Text: inhibition of [3H]-L-arginine uptake in HEK-CAT1 cells on CAT1 (cationic amino acid transporter 1, CAT1/SLC7A1) | verapamil inhibited CAT1-mediated uptake of L-arginine, L-homoarginine, and ADMA with IC50 values

SMILES | inhibition of [3H]-L-arginine uptake in HEK-CAT1 cells, Lineweaver-Burk [1] | inhibition at 20 µM [2] [%] | inhibition at 200 µM [2] [%] | inhibition at 20 µM [3] [%] | inhibition at 200 µM [3] [%] | inhibition at 20 µM [4] [%] | inhibition at 200 µM [4] [%] | inhibition at 20 µM [5] [%] | IC50 [6] [µM]
CN(C)C(=N)NCCC[C@H](N)C(=O)O [ADMA] | competitive inhibition pattern for L-homoarginine and ADMA |  |  |  |  |  |  |  | 
N=C(N)NCCCC[C@H](N)C(=O)O [L-homoarginine] | competitive inhibition pattern for L-homoarginine and ADMA |  |  |  |  |  |  |  | 
COc1ccnc(C[S+]([O-])c2nc3cc(OC(F)F)ccc3[nH]2)c1OC (stereo not drawn) [Pantoprazole] |  | -4.5 ± 1.7 | -9.9 ± 3.1 | 15.2 ± 1.8 | 12.5 ± 0.3 | 16.7 ± 2.1 | 10.5 ± 0.9 |  | 
CC[C@H](C)C(=O)O[C@H]1C[C@H](O)C=C2C=C[C@H](C)[C@H](CC[C@@H](O)C[C@@H](O)CC(=O)O)[C@H]21 [Pravastatin] |  | -18.5 ± 3.3 | -4.4 ± 9.6 | -0.4 ± 3.8 | -10.1 ± 1.4 | 0.2 ± 4.4 | 4.1 ± 2.6 |  | 
C[C@]12C=CC(=O)C=C1CC[C@@H]1[C@@H]2[C@@H](O)C[C@@]2(C)[C@H]1CC[C@]2(O)C(=O)CO [Prednisolone] |  | -3.3 ± 6.9 | 13.4 ± 4.7 | -11.1 ± 5.8 | -16.5 ± 2.4 | 12.5 ± 4.1 | -21.4 ± 1.3 |  | 
C[C@]12C=CC(=O)C=C1CC[C@@H]1[C@@H]2C(=O)C[C@@]2(C)[C@H]1CC[C@]2(O)C(=O)CO [Prednisone] |  | -33.3 ± 2.3 | -16.9 ± 2.24 | 12.5 ± 2.7 | 13.2 ± 2.6 | 13.9 ± 3.4 | 19.1 ± 0.8 |  | 
CCCN(CCC)S(=O)(=O)c1ccc(C(=O)O)cc1 [Probenecid] |  | -24.9 ± 8.3 | -17.5 ± 1.8 | -2.9 ± 2.8 | -1.1 ± 2.2 | -2.6 ± 3.2 | 0.4 ± 2.1 |  | 
CC(CN1c2ccccc2Sc2ccccc21)N(C)C (stereo not drawn) [Promethazine] |  | 4.2 ± 2 | -9.2 ± 1.2 | 4.3 ± 2 | 14 ± 0.9 | -1.3 ± 7.1 | 14.4 ± 6 |  | 
CC(C)NCC(O)COc1cccc2ccccc12 (stereo not drawn) [Propranolol] |  | -27.2 ± 3.6 | -36.3 ± 9.5 | -21.6 ± 0.7 | -3.5 ± 2.1 | -0.9 ± 8.1 | -1.1 ± 7.8 |  | 
CCc1nc(N)nc(N)c1-c1ccc(Cl)cc1 [Pyrimethamine] |  | -37.1 ± 7.2 | 23.4 ± 0.3 | -25.8 ± 15.5 | 31.6 ± 2.7 | 6.9 ± 9.6 | 31.2 ± 2.3 |  | 
C=C[C@H]1CN2CC[C@H]1C[C@@H]2[C@@H](O)c1ccnc2ccc(OC)cc12 [Quinidine] |  | 4.4 ± 6.2 | -19.6 ± 7.7 | 4.4 ± 6.2 | 5.9 ± 1.9 | 29.1 ± 2.8 | 2.7 ± 1 |  | 
CCOC(=O)[C@H](CCc1ccccc1)N[C@@H](C)C(=O)N1[C@H](C(=O)O)C[C@@H]2CCC[C@@H]21 [Ramipril] |  | 0.1 ± 6.9 | -31.1 ± 6.9 | -0.7 ± 11.5 | -6.5 ± 2 | 0.3 ± 12 | -5.8 ± 2.3 |  | 
CNC(=C[N+](=O)[O-])NCCSCc1ccc(CN(C)C)o1 [Ranitidine] |  | -0.5 ± 5.8 | 6.1 ± 3.4 | -4 ± 0.4 | 6.8 ± 0.6 | 7.8 ± 1.8 | 2.9 ± 3.9 |  | 
COC(=O)[C@H]1[C@H]2C[C@@H]3c4[nH]c5cc(OC)ccc5c4CCN3C[C@H]2C[C@@H](OC(=O)c2cc(OC)c(OC)c(OC)c2)[C@@H]1OC [Reserpine] |  | 9 ± 2.6 | 24.2 ± 0.6 | 5 ± 7.5 | 12.5 ± 1.7 | 4.7 ± 7.9 | 5.2 ± 2.9 |  | 
CO[C@H]1/C=C/O[C@@]2(C)Oc3c(C)c(O)c4c(O)c(c(/C=N/N5CCN(C)CC5)c(O)c4c3C2=O)NC(=O)/C(C)=C\C=C\[C@H](C)[C@H](O)[C@@H](C)[C@@H](O)[C@@H](C)[C@H](OC(C)=O)[C@@H]1C [Rifampicin] |  | -5.5 ± 4.2 |  | -5.6 ± 7.8 |  | -8.1 ± 11.5 |  |  | 
CC(=O)S[C@@H]1CC2=CC(=O)CC[C@]2(C)[C@H]2CC[C@@]3(C)[C@@H](CC[C@@]34CCC(=O)O4)[C@H]12 [Spironolactone] |  | 3.2 ± 2.3 | -7.6 ± 2.1 | -3.9 ± 5.2 | -11.5 ± 2.8 | -3.7 ± 5.3 | -4.8 ± 6.6 |  | 
C=CC[C@@H]1/C=C(\C)C[C@H](C)C[C@H](OC)[C@H]2O[C@@](O)(C(=O)C(=O)N3CCCC[C@H]3C(=O)O[C@H](/C(C)=C/[C@@H]3CC[C@@H](O)[C@H](OC)C3)[C@H](C)[C@@H](O)CC1=O)[C@H](C)C[C@@H]2OC [Tacrolimus] |  | -14.2 ± 1.2 | -11.8 ± 2.4 | -10.3 ± 3.6 | 13.4 ± 1.1 | 28.5 ± 3.7 | 69.6 ± 4.8 |  | 
Clc1ccccc1CN1CCc2sccc2C1 [Ticlopidine] |  | -11.3 ± 8.3 | -33.5 ± 3.3 | -4.3 ± 4.6 | 31.4 ± 10.1 | 10.4 ± 4.4 | 31.7 ± 10.4 |  | 
Nc1nc(N)c2nc(-c3ccccc3)c(N)nc2n1 [Triamterene] |  | 12.6 ± 3.2 | -10.6 ± 0.6 | 10.7 ± 2.1 | 14.1 ± 0.5 | 5.1 ± 8.8 | 16.7 ± 1.6 |  | 
COc1cc(Cc2cnc(N)nc2N)cc(OC)c1OC [Trimethoprim] |  | -13.7 ± 2.8 | -68.1 ± 11.3 | -17 ± 1.9 | -13.8 ± 4.1 | 9.9 ± 4.2 | -16.3 ± 6.7 |  | 
CC(CN(C)C)CN1c2ccccc2CCc2ccccc21 (stereo not drawn) [Trimipramine] |  | -26.1 ± 11.5 | -13.4 ± 3.7 | 1.8 ± 4.5 | 34.1 ± 3.8 | 1.3 ± 2.4 | 24.2 ± 4.5 |  | 
O=C(O[C@H]1C[C@H]2CC[C@@H](C1)[N+]21CCCC1)C(O)(c1ccccc1)c1ccccc1 [Trospium Chloride] |  |  | 3 ± 9.1 |  | -22.5 ± 2.3 | 27.1 ± 2.1 | -23.8 ± 4.5 |  | 
CCCC(CCC)C(=O)O [Valproic acid] |  | -7.6 ± 4 | -47.5 ± 6 | 10.2 ± 1.4 | -9.5 ± 5.1 | 12.6 ± 2.5 | -3.1 ± 6.1 |  | 
COc1cc2nc(N3CCN(C(=O)c4ccco4)CC3)nc(N)c2cc1OC [prazosin] |  | 36.9 ± 4.1 | 5.1 ± 2.3 |  | 9.7 ± 6.1 | 9.8 ± 4.3 | 9.9 ± 3.1 | 38.2 | 
O=C(OC1C[C@H]2CC[C@@H](C1)[N+]21CCCC1)C(O)(c1ccccc1)c1ccccc1 (stereo partly drawn) [trospium] |  |  |  |  |  |  |  | 28.6 | 
COc1ccc(CCN(C)CCCC(C#N)(c2ccc(OC)c(OC)c2)C(C)C)cc1OC (stereo not drawn) [verapamil] |  | 24.1 ± 2.3 | 44.2 ± 4.4 |  |  | 29.3 ± 1.1 | 27.5 ± 3.7 |  | 85.3
